Reference: patent US10272083B2, “Methods of treating chronic lymphocytic leukemia and small lymphocytic leukemia using a BTK inhibitor” (Acerta Pharma B.V., priority 2014, dated 2019)
pIC50: −log10 of the molar value. “Also recorded” adds a separate entry of the source.

Tests used:
[1] = test system: human platelet-mediated thrombus formation; experiment: In vivo human thrombus formation, laser injury, VWF HA1 mice model; conditions: platelets preincubated with BTK inhibitor (0.1, 0.5 or 1 μM)
[2] = Preliminary evaluation of metabolism in plasma, bile and urine; type: in vivo; conditions: bile, urine of rats, dogs, monkeys
[3] = test system: regulatory T cell (Treg) development; experiment: CD4+ T cell skewing culture, Treg; type: cell-based; conditions: FIG. 25
Protocol: (§1) Enriched CD4^+ T cells are plated on 24-well culture dishes that have been precoated 2 hr with 250 μL anti-TCRP3 (0.5 μg/mL) plus anti-CD28 (5 μg/mL) at 37° C. in PBS. The cells are then supplemented with media containing BTK inhibitors along with the skewing cytokines as indicated in the following. The Th17 and Treg cultures are grown for 4 days before analysis. The cells are maintained for an additional 3 days with skewing cytokines (Th17; 20 ng/mL IL-6, 0.5 ng/mL TGF-β, […] Treg; 0.5 ng/mL TGF-β, 5 μg/mL IL-4, 5 μg/mL IFN-γ) and are supplemented with IL2 as a growth factor.

NK cells = experiment: Antibody-dependent NK cell degranulation, CD107a flow cytometry; type: cell-based, human; conditions: rituximab-coated DHL-4 target cells
[4] = test system: 80 known pharmacologic targets such as G-protein-coupled receptors, nuclear receptors, proteases, and ion channels; experiment: Binding assays with 80 known pharmacologic targets; conditions: screened at 10 μM
[5] = test system: NK cells and monocytic MDSC subsets; experiment: Flow cytometry of peripheral blood cell subsets in CLL patients; type: in vivo, human; conditions: patients with falling ALC counts, 28 days of dosing
Protocol: PBMCs were stained with monoclonal antibodies conjugated to fluorescent tags (flourochromes) to identify cell subsets via flow cytometry. Non-viable cells were excluded from the analysis using the dye 7-aminoactinomycin D (7-AAD). To produce the metric of percent change, the following steps were taken. First, each cell subset was defined by hierarchical flow cytometry gating. Then, the change in frequency (between day 1 and day 28) was calculated for each cell subset. MDSC subsets were measured as a % of all myeloid cells. T cell subsets were measured as a % of all CD3^+ cells, and NK cells were measured as a % of all live CD45^+ cells. […] A cycle is 28 days. A trend is observed wherein patients with decreasing ALC % had increasing MDSC (monocytic) %. This may include patients who had quickly resolving lymphocytosis and those with no initial lymphocytosis. […] This may include patients who had quickly resolving lymphocytosis and those having no initial lymphocytosis. The effects in FIG. 9 to FIG. 12 are observed in multiple cohorts, at doses including 100 mg BID, 200 mg QD, and 400 mg QD. In FIG. 13 and FIG. 14, the effects on NK cells and MDSC cells are compared to a number of other markers versus % change in ALC at C1D28 and C2D28. These other markers include CD4+ T cells, CD8+ T cells, CD4+/CD8+ T cell ratio, NK-T cells, PD-1+CD4+ T cells, and PD-1+CD8+ T cells. […]

[6] = Glutathione binding and depletion in vitro
[7] = test system: platelet collagen receptor glycoprotein VI (GPVI); experiment: GPVI (convulxin-induced) platelet aggregation; type: cell-based, human; conditions: for inhibition of GPVI platelet aggregation: FIG. 16 and FIG. 17
Protocol: GPVI platelet aggregation was measured for Formula (II) and ibrutinib. Blood was obtained from untreated humans, and platelets were purified from […] by centrifugation. Cells were resuspended to a final concentration of 350,000/μL in buffer containing 145 mmol/L NaCl, 10 mmol/L HEPES, 0.5 mmol/L Na2HPO4, 5 mmol/L KCl, 2 mmol/L MgCl2, 1 mmol/L CaCl2, and 0.1% glucose, at pH 7.4. Stock solutions of […] were prepared on the day of experimentation and added to platelet suspensions 5 minutes (37° C., 1200 rpm) before the induction of aggregation. Aggregation was assessed with a Chronolog Lumi-Aggregometer (model 540 VS; Chronolog, Havertown, Pa.) and permitted to proceed for 6 minutes after the addition of agonist. The results are reported as maximum percent change in light transmittance from baseline with platelet buffer used as a reference.
In FIG. 17, the results of CVX-induced (250 ng/mL) human platelet aggregation results before and 15 minutes after administration of the BTK inhibitors to 6 healthy individuals are shown.

[8] = Cardiovascular function study in awake telemeterized beagle dogs; type: in vivo; conditions: male beagle dogs, single doses through 30 mg/kg
Source text: (§2) Formula (II) was well tolerated in standard in vivo Good Laboratory Practices (GLP) studies of pharmacologic safety.

[9] = test system: canine spontaneous B-cell lymphoma; experiment: Study of canine spontaneous B-cell lymphoma; type: in vivo, dogs; conditions: 2.5 mg/kg once daily oral
Source text: Formula (II) is currently being evaluated in an ongoing study of canine spontaneous B-cell lymphoma. […] To date, partial remission (PR), per Veterinary Cooperative Oncology Group criteria for assessment of response in peripheral nodal lymphoma, has been observed in 2 of 6 dogs. D. M. Vali, et al., Vet. Comp. Oncol. 8, 28-37 (2010). […] L. A. Honigberg, et al., Proc. Nat. Acad. Sci. USA, 107, 13075-13080 (2010).

[10] = GLP functional observation battery in rats; type: in vivo; conditions: doses through 300 mg/kg
Source text: as §2

[11] = In vitro metabolism in hepatocytes with 14C-labeled compound; type: in vitro ADME, mouse, rat, dog, rabbit, monkey, and human
EGFR phosphorylation = experiment: In vitro EGFR phosphorylation in A431 cells; type: cell-based; conditions: 10 μM, A431 human epidermoid cancer cell line
CYP enzymes = experiment: Nonclinical CYP interaction studies; type: in vitro ADME
[12] = test system: BCR activation markers CD69 and CD86; experiment: In vivo potency: IgM-stimulated BCR activation markers by flow cytometry; conditions: mice gavaged, 3 h post-dose, BCR stimulated with IgM
Protocol: Mice were gavaged at increasing drug concentration and sacrificed at one time point (3 h post-dose). BCR is stimulated with IgM and the expression of activation markers CD69 and CD86 are monitored by flow cytometry to determine EC50's.
CD86 and CD69 are cell surface proteins that are BCR activation markers. […] BCR was stimulated with IgM and the expression of activation marker CD69 and CD86 are monitored by flow cytometry and to determine EC50 values.

Th17 cells = experiment: CD4+ T cell skewing culture, Th17; type: cell-based; conditions: FIG. 24
Protocol: as §1

[13] = Study of respiratory function in rats; type: in vivo; conditions: doses through 300 mg/kg
Source text: as §2

CYP3A4 = CYP3A4 (Homo sapiens, UniProt P08684); experiment: In vitro loss of parent drug as catalyzed by CYPs; type: in vitro ADME
Sequence of CYP3A4 (P08684 whole entry): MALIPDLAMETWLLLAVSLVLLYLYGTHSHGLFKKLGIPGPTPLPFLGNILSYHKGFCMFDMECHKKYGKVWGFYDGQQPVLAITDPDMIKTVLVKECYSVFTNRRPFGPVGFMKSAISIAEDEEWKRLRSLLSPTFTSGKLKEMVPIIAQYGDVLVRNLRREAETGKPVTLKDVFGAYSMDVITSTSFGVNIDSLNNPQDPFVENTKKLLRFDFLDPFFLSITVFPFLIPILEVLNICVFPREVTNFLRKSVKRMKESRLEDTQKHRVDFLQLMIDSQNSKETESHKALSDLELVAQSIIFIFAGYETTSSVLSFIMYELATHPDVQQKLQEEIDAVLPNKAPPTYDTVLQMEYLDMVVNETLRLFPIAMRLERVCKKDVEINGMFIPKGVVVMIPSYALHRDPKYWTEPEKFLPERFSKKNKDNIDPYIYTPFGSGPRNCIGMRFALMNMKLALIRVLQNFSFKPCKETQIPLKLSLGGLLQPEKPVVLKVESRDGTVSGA

[14] = within the tested dose range; cited from earlier work
Raji cells = experiment: Rituximab ADCC 51Cr release, healthy donor NK cells vs Raji cells; type: cell-based, human; conditions: 1 μM, E:T 25:1
[15] = test system: canine spontaneous B-cell lymphoma; conditions: out of 8 dogs treated; Honigberg et al. 2010; cited from earlier work

C=CC(=O)Nc1cccc(Nc2nc(Nc3ccc(OCCOC)cc3)ncc2F)c1 [CC-292, N-(3-((5-fluoro-2-((4-(2-methoxyethoxy)phenyl)amino)pyrimidin-4-yl)amino)phenyl)acrylamide, reference compound]
effect on human platelet-mediated thrombus formation [1]: effect similar to ibrutinib

CC#CC(=O)N1CCC[C@H]1c1nc(-c2ccc(C(=O)Nc3ccccn3)cc2)c2c(N)nccn12 [Formula (II), (S)-4-(8-amino-3-(1-(but-2-ynoyl)pyrrolidin-2-yl)imidazo[1,5-a]pyrazin-1-yl)-N-(pyridin-2-yl)benzamide]
metabolic processes [2]: oxidation, glutathione binding, and hydrolysis | Grade of Diarrhea (relapsed/refractory CLL; All (N = 44)): 1 | Grade of Headache (relapsed/refractory CLL; All (N = 44)): ½ | Grade of Increased tendency to bruise (relapsed/refractory CLL; All (N = 44)): 1 | Grade of Petechiae (relapsed/refractory CLL; All (N = 44)): 1 | Treatment-related adverse event: Diarrhea (relapsed/refractory CLL; All (N = 44)): 4 (9) n (%) | Treatment-related adverse event: Headache (relapsed/refractory CLL; All (N = 44)): 7 (16) n (%) | Treatment-related adverse event: Increased tendency to bruise (relapsed/refractory CLL; All (N = 44)): 6 (14) n (%) | Treatment-related adverse event: Petechiae (relapsed/refractory CLL; All (N = 44)): 3 (7) n (%) | progression-free survival (PFS) in comparison to ibrutinib (relapsed/refractory CLL; Kaplan-Meier, Log-Rank p-value 0.0206): An improvement in survival and a reduction in risk | MTD (relapsed/refractory CLL; relapsed/refractory CLL): not reached | dose-limiting toxicities (DLTs) (relapsed/refractory CLL; relapsed/refractory CLL): No DLTs were observed | grade of AEs observed (relapsed/refractory CLL; relapsed/refractory CLL): only grade 1 AEs were observed | lymphocytosis (relapsed/refractory CLL; relapsed/refractory CLL): A lack of lymphocytosis | treatment-related serious adverse events (SAEs) (relapsed/refractory CLL; relapsed/refractory CLL): No treatment-related serious adverse events (SAEs) were observed | progression in patients with 17p deletion (relapsed/refractory CLL; to date): no 17p patients have progressed | effect on Treg development [3]: no adverse effects; also recorded: no effect | reduction of rituximab-stimulated NK cell degranulation (NK cells): < 2% | activity in binding screen of 80 targets [4]: significant activity only against the A3 adenosine receptor | frequency of NK cells and monocytic MDSC subsets in peripheral blood [5]: increase in frequency in the peripheral blood | effect on human platelet-mediated thrombus formation [1]: no significant effect | glutathione binding / depletion [6]: binds to glutathione but does not deplete glutathione | inhibition of GPVI platelet aggregation [7]: does not | pIC50 ([7]; Homo sapiens, Platelet, FIG. 16): 5.94 | body temperature, cardiovascular, or ECG (including QT interval) parameters [8]: no meaningful changes | drug-related adverse events [9]: No drug-related adverse events | partial remission (PR) ([9]; average 22 days, preliminary): 2 of 6 | neurobehavioral effects or body temperature [10]: no adverse effects | unique human metabolite ([11]; hepatocytes): No unique human metabolite was identified | metabolites in hepatocytes ([11]; mouse, rat, dog, rabbit, monkey, human hepatocytes): two mono-oxidized metabolites and a glutathione conjugate | inhibition of in vitro EGFR phosphorylation (EGFR phosphorylation): no inhibition | drug-drug interaction potential via CYP enzymes (CYP enzymes): very unlikely to cause clinical drug-drug interactions | in vivo potency at inhibiting expression of activation markers CD69 and CD86 [12]: more potent at inhibiting expression of activation makers than ibrutinib | effect on Th17 cells (Th17 cells): no adverse effect | respiratory function [13]: no treatment-related adverse effects | CYP responsible for metabolism (CYP3A4): metabolized by CYP3A4

C=CC(=O)N1CCC[C@@H](n2nc(-c3ccc(Oc4ccccc4)cc3)c3c(N)ncnc32)C1 [Ibrutinib, 1-[(3R)-3-[4-amino-3-(4-phenoxyphenyl)-1H-pyrazolo[3,4-d]pyrimidin-1-yl]piperidin-1-yl]prop-2-en-1-one, reference compound]
maximum tolerated dose (MTD) [14]: No maximum tolerated dose (MTD) was apparent | effect on rituximab-mediated ADCC against Raji cells (Raji cells): strongly inhibited | effect on Treg development [3]: increase in Treg development; also recorded: strongly increases Treg development | inhibition of GPVI platelet aggregation [7]: significantly inhibits GPVI platelet aggregation | dogs with PR [15]: 3 dogs | effect on Th17 cells (Th17 cells): profound inhibition of Th17 cells; also recorded: strongly inhibits Th17 cells
